Article PMC10644327, “A randomized, double‐blind phase 1b study evaluating the safety, tolerability, pharmacokinetics and pharmacodynamics of the NLRP3 inhibitor selnoflast in patients with moderate to severe active ulcerative colitis” (Clinical and Translational Medicine, 2023)
Like-named read-outs stand apart in the source and are kept apart here.

Columns and labels:
P-glycoprotein (P-gP) = tested on: P-glycoprotein (P-gP); design: method as in Investigator Brochure; details: in vitro studies; ref Investigator Brochure; cited from earlier work
[1] = tested on: IL‐1β release in activated human monocyte‐derived macrophages; design: method as in unpublished results; details: in vitro, ref unpublished results; cited from earlier work
[2] = tested on: IL‐1β release in ex vivo stimulated whole blood; design: method as in unpublished results, study IZD334-001; details: healthy subjects, 450 mg QD, ref unpublished results, study IZD334-001, cited from earlier work
[3] = Selnoflast plasma pharmacokinetics in UC patients (LC‐MS/MS, non‐compartmental); type: in vivo, human; details: for Tmax / concentration at 24 h / Cmax / half-life / AUC: 450 mg; for concentration at 24 h: read-out: Ctrough
Description: Selnoflast (450 mg QD or matching placebo) was administered orally in the morning following an overnight fast of at least 8 h during the patients’ 7‐day clinic stay. Water intake was restricted for 1 h pre‐dose and 1 h post‐dose, and no food was allowed until at least 4 h post‐dose.
The concentrations of selnoflast were determined in a total of 260 human plasma samples (obtained during the study) using a validated liquid chromatography‐tandem mass spectrometry (LC‐MS/MS) method. Sample analysis was performed after the addition of the internal standard by protein precipitation followed by LC‐MS/MS. The calibration range was between 40.0 ng/mL and 40000.0 ng/mL; the lower limit of quantification in human plasma was 40.0 ng/mL. Study samples were analyzed within the validated frozen storage stability timeframe of 371 days at −20°C and −70°C, the five validated freeze/thaw cycles, and proven room temperature storage stability of 24 h, in a total of six analytical runs. Five out of six runs met the acceptance criteria. The precision and accuracy (expressed as %RE) of the assay, as determined from the analysis of quality control samples, was satisfactory throughout the study.
All randomized patients were included in the intent‑to‑treat population. All patients completed all doses of study treatment and all were included in the safety, PK and PD analyses. Safety data were grouped according to treatment received and were tabulated and/or listed, as appropriate. PK parameters (including Tmax, Cmax, Ctrough, total exposure, drug accumulation, clearance, volume of distribution and T1/2) were extrapolated directly from the plasma concentration‐versus‐time profiles or calculated using standard non‐compartmental methods. PK and PD parameters were summarized and presented descriptively.

[4] = design: method as in Investigator Brochure; details: ref Investigator Brochure, cited from earlier work
[5] = Safety and tolerability in patients with ulcerative colitis; type: in vivo, human
From the text: The primary objective of this study was to evaluate the PK, safety, and tolerability of selnoflast. The main endpoints were the incidence and severity of adverse events (AEs), changes in vital signs, 12‐lead electrocardiogram (ECG) parameters, and clinical laboratory safety parameters. AEs were monitored throughout the study and at the 14‐day follow‐up visit. Safety assessments included recording of the incidence and type of treatment‐emergent adverse events (TEAEs), discontinuations, serious TEAEs, and adverse events of special interest (AESIs) (including cases of elevated alanine aminotransferase [ALT] or aspartate aminotransferase [AST] in combination with either elevated bilirubin or clinical jaundice). Vital signs, ECGs, blood chemistry and hematology panels, coagulation panels and urinalysis were assessed at screening and at various time points during the study. Changes in absolute lymphocyte count were also assessed. Blood samples for PK analyses were obtained pre‐dose and at various timepoints up to 24 h post‐dose throughout the 7‐day in‐clinic treatment period, as well as once during the 14‐day follow‐up visit. As the 1‐week duration of the study was too short for assessing clinical changes, no clinical assessments were planned. Further details are given in the study protocol (Supporting Information).

[6] = cited from earlier work; for Tolerability: healthy subjects, single doses 20-600 mg and multiple doses up to 450 mg QD for 7 days, ref unpublished results, study IZD334-001
[7] = 450 mg QD repeat dosing, UC patients
[8] = human, plasma, po, 450 mg QD oral, fasted, UC patients N = 13, Day 1, geometric mean (CV% geo mean)
[9] = human, plasma, po, 450 mg QD oral, fasted, UC patients N = 13, steady‐state (Day 5), geometric mean (CV% geo mean)

**Q.** Which P-gp substrate status (P-glycoprotein (P-gP)) does the source give for `CCN1CCC(S(=O)(=O)NC(=O)Nc2c3c(cc4c2CCC4)CCC3)CC1` [Selnoflast, selnoflast] here?
**A.** The P-gp substrate status was “potential substrate”.

**Q.** And the “Inhibition of IL‐1β release” value [1]?
**A.** The value was “potent inhibitor”.

**Q.** What about the “Inhibition of IL‐1β release compared to baseline” value (shortened to “Inhibition … compared to baseline”) ([2]; over the dosing interval (24 hours)) of the same compound?
**A.** The value was “over 90%”.

**Q.** What about the “Inhibition … compared to baseline” value ([2]; over the dosing interval (24 hours), listed as RO7486967) of the same compound?
**A.** Its value is 90%.

**Q.** And the “Inhibition … compared to baseline” value ([2]; up to 10 h post‐dose)?
**A.** The value was 99%.

**Q.** And the Ctrough ([3]; 450 mg QD oral, fasted, UC patients N = 13, Day 1 (Clast, 24 h), geometric mean (CV% geo mean))?
**A.** Its Ctrough is 2.55 (38.8) μg/mL.

**Q.** What about the CL/F ([3]; 450 mg QD oral, fasted, UC patients N = 13, Day 1, geometric mean (CV% geo mean)) of the same compound?
**A.** The CL/F was 1.82 (17.5) L/h.

**Q.** What about the Ctrough ([3]; 450 mg QD oral, fasted, UC patients N = 13, steady‐state (Day 5) (Clast, 24 h), geometric mean (CV% geo mean)) of the same compound?
**A.** Its Ctrough is 2.66 (46.6) μg/mL.

**Q.** What about the CL/F ([3]; 450 mg QD oral, fasted, UC patients N = 13, steady‐state (Day 5), geometric mean (CV% geo mean)) of the same compound?
**A.** Its CL/F is 1.68 (21.0) L/h.

**Q.** What about the “Accumulation: increase in AUCtau from Day 1 to Day 5” value [3, 7] of the same compound?
**A.** Its value is 8.6%.

**Q.** And the “Accumulation: increase in Clast from Day 1 to Day 5” value [3, 7]?
**A.** The value was 4.3%.

**Q.** What about the “Accumulation: increase in Cmax from Day 1 to Day 5” value [3, 7] of the same compound?
**A.** Its value is 17%.

**Q.** And the “Steady‐state achieved” value ([3]; 450 mg QD, UC patients)?
**A.** The value was “Day 2”.

**Q.** What about the Tmax ([3]; human, plasma, oral, UC patients in the present study, read-out: Median Tmax) of the same compound?
**A.** Its Tmax is 1 to 2 h.

**Q.** What about the concentration at 24 h ([3]; human, plasma, po, 450 mg QD oral, fasted, UC patients N = 13, Day 1 (Clast, 24 h), geometric mean (CV% geo mean)) of the same compound?
**A.** The concentration at 24 h was 2550 ng/mL.

**Q.** And the Cmax [3, 8]?
**A.** Its Cmax is 25000 ng/mL.

**Q.** What about the half-life [3, 8] of the same compound?
**A.** Its half-life is 6.9 h.

**Q.** And the AUC ([3]; human, plasma, po, 450 mg QD oral, fasted, UC patients N = 13, Day 1, geometric mean (CV% geo mean), read-out: AUC0‐inf)?
**A.** Its AUC is 275 µg·h/mL.

**Q.** What about the AUC ([3]; human, plasma, po, 450 mg QD oral, fasted, UC patients N = 13, Day 1, geometric mean (CV% geo mean), read-out: AUCtau) of the same compound?
**A.** Its AUC is 247 µg·h/mL.

**Q.** What about the Tmax ([3]; human, plasma, po, 450 mg QD oral, fasted, UC patients N = 13, Day 1, median (range), read-out: Tmax) of the same compound?
**A.** The Tmax was 1.97 h.

**Q.** What about the concentration at 24 h ([3]; human, plasma, po, 450 mg QD oral, fasted, UC patients N = 13, steady‐state (Day 5) (Clast, 24 h), geometric mean (CV% geo mean)) of the same compound?
**A.** Its concentration at 24 h is 2660 ng/mL.

**Q.** And the Cmax [3, 9]?
**A.** Its Cmax is 29300 ng/mL.

**Q.** What about the half-life [3, 9] of the same compound?
**A.** Its half-life is 6.93 h.

**Q.** And the AUC ([3]; human, plasma, po, 450 mg QD oral, fasted, UC patients N = 13, steady‐state (Day 5), geometric mean (CV% geo mean), read-out: AUCtau)?
**A.** Its AUC is 268 µg·h/mL.

**Q.** What about the Tmax ([3]; human, plasma, po, 450 mg QD oral, fasted, UC patients N = 13, steady‐state (Day 5), median (range), read-out: Tmax) of the same compound?
**A.** Its Tmax is 1 h.

**Q.** What about the Vd/F ([3]; human, plasma, 450 mg QD oral, fasted, UC patients N = 13, Day 1, geometric mean (CV% geo mean), read-out: Vz/F) of the same compound?
**A.** The Vd/F was 18.1 L.

**Q.** And the “Potential to cause direct hepatotoxicity” value ([4]; at therapeutically relevant concentrations, based on in vitro assessments)?
**A.** The value was “low”.

**Q.** And the Mitochondrial toxicity ([4]; in vitro)?
**A.** The Mitochondrial toxicity was “did not show mitochondrial toxicity”.

**Q.** What about the Deaths ([5]; N = 13) of the same compound?
**A.** The Deaths was 0.

**Q.** And the “Patients with at least one AE with fatal outcome” value ([5]; N = 13)?
**A.** The value was 0.

**Q.** What about the “AEs considered treatment‐related” value ([5]; human, in vivo, 7 days) of the same compound?
**A.** The value was 23.1%.

**Q.** What about the “Dyspepsia, patients” value ([5]; human, in vivo, 7 days) of the same compound?
**A.** The value was 15.4%.

**Q.** And the “Headache, patients” value ([5]; human, in vivo, 7 days)?
**A.** The value was 15.4%.

**Q.** And the “Patients with at least one AE leading to dose modification/interruption” value ([5]; human, in vivo, 7 days)?
**A.** Its value is 0.

**Q.** And the “Patients with at least one AE leading to withdrawal from treatment” value ([5]; human, in vivo, 7 days)?
**A.** The value was 0.

**Q.** And the “Patients with at least one Related AE” value ([5]; human, in vivo, 7 days)?
**A.** Its value is 3 (23.1%).

**Q.** And the “Patients with at least one Related AE leading to dose modification/ interruption” value ([5]; human, in vivo, 7 days)?
**A.** The value was 0.

**Q.** What about the “Patients with at least one Related AE leading to withdrawal from treatment” value ([5]; human, in vivo, 7 days) of the same compound?
**A.** Its value is 0.

**Q.** What about the “Patients with at least one Serious AE” value ([5]; human, in vivo, 7 days) of the same compound?
**A.** The value was 0.

**Q.** And the “Patients withdrawn from study due to AE” value ([5]; human, in vivo, 7 days)?
**A.** The value was 0.

**Q.** What about the “Severity of AEs” value ([5]; human, in vivo, 7 days) of the same compound?
**A.** The value was “mild (Grade 1), with the exception of one AE of Grade 2 severity”.

**Q.** What about the “Bacterial, viral, fungal, and other opportunistic infections” value ([6]; HVs in the Phase I clinical study, ref Investigator Brochure) of the same compound?
**A.** The value was “No evidence”.

**Q.** And the “Healthy volunteers with mild transaminase increase” value ([6]; MAD part, volunteers who received RO7486967, no clear dose dependency, not clinically significant, ref Study IZD334-001)?
**A.** Its value is 4 out of 18.

**Q.** What about the Tolerability [6] of the same compound?
**A.** Its Tolerability is “well tolerated”.

**Q.** And the Tolerability ([6]; listed as RO7486967)?
**A.** The Tolerability was “safe and well tolerated”.
